According to patent publication US8143244B2, “Cyclopropyl fused indolobenzazepine HCV NS5B inhibitors” (Bristol-Myers Squibb Company, priority 2009, dated 2012):
Read-outs that look alike come from different tables or passages of the source.

How the values were obtained:
[1] = target: T1, HCV NS5B (Hepatitis C virus genotype 1b, UniProt Q9WMX2); assay: HCV NS5B RdRp enzyme assay; type: biochemical; details: HCV NS5B RdRp genotype 1b
T1 construct: The protein was expressed with an 18 amino acid C-terminal truncation to enhance the solubility; made in house; host or cells: E. coli BL21(DE3)
Protocol: HCV NS5B RdRp cloning, expression, and purification. The cDNA encoding the NS5B protein of HCV, genotype 1b, was cloned into the pET21a expression vector. The protein was expressed with an 18 amino acid C-terminal truncation to enhance the solubility. The E. coli competent cell line BL21(DE3) was used for expression of the protein. Cultures were grown at 37° C. for ˜4 hours until the cultures reached an optical density of 2.0 at 600 nm. The cultures were cooled to 20° C. and induced with 1 mM IPTG. Fresh ampicillin was added to a final concentration of 50 μg/ml and the cells were grown overnight at 20° C.
Cell pellets (3L) were lysed for purification to yield 15-24 mgs of purified NS5B. The lysis buffer consisted of 20 mM Tris-HCl, pH 7.4, 500 mM NaCl, 0.5% triton X-100, 1 mM DTT, 1 mM EDTA, 20% glycerol, 0.5 mg/ml lysozyme, 10 mM MgCl2, 15 ug/ml deoxyribonuclease I, and Complete TM protease inhibitor tablets (Roche). After addition of the lysis buffer, frozen cell pellets were resuspended using a tissue homogenizer. To reduce the viscosity of the sample, aliquots of the lysate were sonicated on ice using a microtip attached to a Branson sonicator. The sonicated lysate was centrifuged at 100,000×g for 1 hr at 4° C. and filtered through a 0.2 μm filter unit (Corning).
The protein was purified using three sequential chromatography steps: Heparin sepharose CL-6B, polyU sepharose 4B, and Hitrap SP sepharose (Pharmacia). The chromatography buffers were identical to the lysis buffer but contained no lysozyme, deoxyribonuclease I, MgCl2 or protease inhibitor and the NaCl concentration of the buffer was adjusted according to the requirements for charging the protein onto the column. Each column was eluted with a NaCl gradient which varied in length from 5-50 column volumes depending on the column type. After the final chromatography step, the resulting purity of the enzyme is >90% based on SDS-PAGE analysis. The enzyme was aliquoted and stored at −80° C.
Standard HCV NS5B RdRp enzyme assay. HCV RdRp genotype 1b assays were run in a final volume of 60 μl in 96 well plates (Costar 3912). The assay buffer is composed of 20 mM Hepes, pH 7.5, 2.5 mM KCl, 2.5 mM MgCl2, 1 mM DTT, 1.6 U RNAse inhibitor (Promega N2515), 0.1 mg/ml BSA (Promega R3961), and 2% glycerol. All compounds were serially diluted (3-fold) in DMSO and diluted further in water such that the final concentration of DMSO in the assay was 2%. HCV RdRp genotype 1b enzyme was used at a final concentration of 28 nM. A polyA template was used at 6 nM, and a biotinylated oligo-dT12 primer was used at 180 nM final concentration. Template was obtained commercially (Amersham 27-4110). Biotinylated primer was prepared by Sigma Genosys. 3H-UTP was used at 0.6 μCi (0.29 μM total UTP). Reactions were initiated by the addition of enzyme, incubated at 30° C. for 60 min, and stopped by adding 25 μl of 50 mM EDTA containing SPA beads (4 μg/μl, Amersham RPNQ 0007). Plates were read on a Packard Top Count NXT after >1 hr incubation at room temperature.
Modified HCV NS5B RdRp enzyme assay. A modified enzyme assay was performed essentially as described for the standard enzyme assay except for the following: The biotinylated oligo dT12 primer was precaptured on streptavidin-coated SPA beads by mixing primer and beads in assay buffer and incubating at room temperature for one hour. Unbound primer was removed after centrifugation. The primer-bound beads were resuspended in 20 mM Hepes buffer, pH 7.5 and used in the assay at final concentrations of 20 nM primer and 0.67 μg/μl beads. Order of addition in the assay: enzyme (14 nM) was added to diluted compound followed by the addition of a mixture of template (0.2 nM), 3H-UTP (0.6 μCi, 0.29 μM), and primer-bound beads, to initiate the reaction; concentrations given are final. Reactions were allowed to proceed for 4 hours at 30° C.
IC50 values for compounds were determined using seven different [I]. […]

[2] = tested on: HCV replicon genotype 1a; assay: HCV Replicon Luciferase Reporter Assay (LE Assay), genotype 1a replicon; type: cell-based, HCV genotype 1a; details: Hepatitis C virus, read-out: LE NeoLuc EC50
Protocol: (§1) The HCV replicon luciferase assay was developed to monitor the inhibitory effects of compounds described in the disclosure on HCV viral replication. Utilization of a replicon luciferase reporter assay was first described by Krieger et al (Krieger N, Lohmann V, and Bartenschlager R, J. Virol. 75(10):4614-4624 (2001)). HUH-7 cells, constitutively expressing the HCV replicon, were grown in Dulbeccors Modified Eagle Media (DMEM) (Gibco-BRL) containing 10% Fetal calf serum (FCS) (Sigma) and 1 mg/ml G418 (Gibco-BRL). Compounds were serially diluted 3 folds in DMSO for a twenty-point titration and subsequently transferred to sterile 384-well tissue-culture treated plates (Coming cat #3571). The plates were then seeded with 50 μl of cells at a density of 3.0×10^3 cells/well in DMEM containing 4% FCS (final DMSO concentration at 0.5%). After 3 days incubation at 37° C., cells were analyzed for Renilla Luciferase activity using the EnduRen as substrate (Promega cat #E6485). The EnduRen substrate was diluted in DMEM and then added to the plates to a final concentration of 7.5 μM. The plates were incubated for 2 hrs at 37° C. and then read immediately for 30 seconds with Viewlux Imager (PerkinElmer) using a luminescence program. To assess cytotoxicity of compounds, CC50 values were generated by multiplexing the EnduRen-containing plates with Cell Titer-Blue (Promega, cat #G8082). 3 μl of Cell-Titer Blue was added to each well and incubated for 8 hrs at 37° C. The fluorescence signal from each well was read, with an excitation wavelength at 525/10 nm and an emission wavelength of 598/10 nm, using the Viewlux Imager.

[3] = tested on: HCV replicon; assay: HCV Replicon Luciferase Reporter Assay (LE Assay); type: cell-based, HCV genotype 1b; details: Hepatitis C virus
Protocol: as §1

[4] = genotype 1b, Huh-7, read-out: LE NeoLuc EC50, Table 1, HUH-7 cells, genotype 1b replicon
[5] = Huh-7, Table 2, HUH-7 cells, read-out: LE NeoLuc EC50

T1 sequence (Q9WMX2 2420-2992): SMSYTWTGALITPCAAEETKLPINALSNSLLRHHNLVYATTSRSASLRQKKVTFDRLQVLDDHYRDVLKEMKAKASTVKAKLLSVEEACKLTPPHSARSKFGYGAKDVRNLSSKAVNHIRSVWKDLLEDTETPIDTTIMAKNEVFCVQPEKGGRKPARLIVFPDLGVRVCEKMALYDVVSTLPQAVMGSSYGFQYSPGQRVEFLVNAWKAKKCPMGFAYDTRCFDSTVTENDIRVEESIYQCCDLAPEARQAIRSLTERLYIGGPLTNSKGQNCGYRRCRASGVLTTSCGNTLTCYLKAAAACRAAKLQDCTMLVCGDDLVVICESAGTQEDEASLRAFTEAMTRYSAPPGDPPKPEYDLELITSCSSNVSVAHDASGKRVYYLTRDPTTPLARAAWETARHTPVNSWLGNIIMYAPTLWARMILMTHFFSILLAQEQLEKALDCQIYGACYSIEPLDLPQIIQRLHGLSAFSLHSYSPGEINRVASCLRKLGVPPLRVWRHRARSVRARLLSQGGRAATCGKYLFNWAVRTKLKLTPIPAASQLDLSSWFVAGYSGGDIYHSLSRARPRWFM

Compound	IC50 ([1]; Table 1)	EC50 [2]	EC50 [3, 4]	IC50 ([1]; Table 2)	EC50 [3, 5]
COc1ccc2c(c1)[C@@H]1C[C@]1(C(=O)N1CC34CCC3(CN(C(=O)N3CCOCC3)C4)C1)Cn1c-2c(C2CCCCC2)c2ccc(C(=O)NS(=O)(=O)N(C)C)cc21 (stereo partly drawn)	1.9 to 500 nM	1.9 to 500 nM	–	–	–
COc1ccc2c(c1)[C@@H]1C[C@]1(C(=O)N1CC34CCC3(CN(CC(F)(F)F)C4)C1)Cn1c-2c(C2CCCCC2)c2ccc(C(=O)NS(=O)(=O)C(C)C)cc21 (stereo partly drawn)	1.9 to 500 nM	1.9 to 500 nM	–	–	–
COc1ccc2c(c1)[C@@H]1C[C@]1(C(=O)N1CC34CCC3(C1)C[N+]([O-])(CC(F)(F)F)C4)Cn1c-2c(C2CCCCC2)c2ccc(C(=O)NS(=O)(=O)N(C)C)cc21 (stereo partly drawn)	< 1.7 nM	1.9 to 500 nM	–	–	–
COc1ccc2c(c1)[C@@H]1C[C@]1(C(=O)N1CC34CCC3(CN(CC(F)(F)F)C4)C1)Cn1c-2c(C2CCCCC2)c2ccc(C(=O)NS(=O)(=O)N(C)C)cc21 (stereo partly drawn)	1.9 to 500 nM	–	1.9 to 500 nM	–	–
COC(=O)N1CC23CCC2(C1)CN(C(=O)[C@]12C[C@H]1c1cc(OC)ccc1-c1c(C4CCCCC4)c4ccc(C(=O)NS(=O)(=O)C(C)C)cc4n1C2)C3 (stereo partly drawn)	1.9 to 500 nM	–	1.9 to 500 nM	–	–
COc1ccc2c(c1)[C@@H]1C[C@]1(C(=O)N1CC34CCC3(C1)CN(S(=O)(=O)C(C)C)C4)Cn1c-2c(C2CCCCC2)c2ccc(C(=O)NS(=O)(=O)N(C)C)cc21 (stereo partly drawn)	1.9 to 500 nM	–	1.9 to 500 nM	–	–
COc1ccc2c(c1)[C@@H]1C[C@]1(C(=O)N1CC34CCC3(C1)CN(S(=O)(=O)C(C)C)C4)Cn1c-2c(C2CCCCC2)c2ccc(C(=O)NS(=O)(=O)C(C)C)cc21 (stereo partly drawn)	1.9 to 500 nM	–	1.9 to 500 nM	–	–
CCOCCN1CC23CCC2(C1)CN(C(=O)[C@]12C[C@H]1c1cc(OC)ccc1-c1c(C4CCCCC4)c4ccc(C(=O)NS(=O)(=O)C(C)C)cc4n1C2)C3 (stereo partly drawn)	–	1.9 to 500 nM	–	–	–
COc1ccc2c(c1)[C@@H]1C[C@]1(C(=O)N1CC34CCC3(C1)CN(C1CC1)C4)Cn1c-2c(C2CCCCC2)c2ccc(C(=O)NS(=O)(=O)N(C)C)cc21 (stereo partly drawn)	–	1.9 to 500 nM	–	–	–
COc1ccc2c(c1)[C@@H]1C[C@]1(C(=O)N1CC34CCC3(CN(C)C4)C1)Cn1c-2c(C2CCCCC2)c2ccc(C(=O)NS(=O)(=O)C(C)C)cc21 (stereo partly drawn) [drawing 71]	1.9 to 500 nM	–	1.9 to 500 nM	–	–
CNC(=O)N1CC23CCC2(C1)CN(C(=O)[C@]12C[C@H]1c1cc(OC)ccc1-c1c(C4CCCCC4)c4ccc(C(=O)NS(=O)(=O)C(C)C)cc4n1C2)C3 (stereo partly drawn) [drawing 99]	< 1.7 nM	–	1.9 to 500 nM	–	–
COc1ccc2c(c1)[C@@H]1C[C@]1(C(=O)N1CC34CCC3(CN(C)C4)C1)Cn1c-2c(C2CCCCC2)c2ccc(C(=O)NS(=O)(=O)C(C)C)cc21 (stereo partly drawn) [drawing 108]	–	–	–	3.5 nM	6.96 nM
CNC(=O)N1CC23CCC2(C1)CN(C(=O)[C@]12C[C@H]1c1cc(OC)ccc1-c1c(C4CCCCC4)c4ccc(C(=O)NS(=O)(=O)C(C)C)cc4n1C2)C3 (stereo partly drawn) [drawing 111]	–	–	–	< 1.7 nM	60 nM
